From US20250034201A1, “PRODRUGS OF GANAXOLONE” (priority 2022, published 2025)
Values after ≈ are worked out from the molar mass of the structure shown. Read-outs that look alike come from different tables or passages of the source.

Tests used:
[1] = Rat liver microsomal stability; assay type: in vitro ADME
Method: (§1) For several compounds only human liver microsomal stability was tested. […] The microsomal assays were carried out with and without the addition of NADPH at a final concentration of 1 mM. For negative control samples, NADPH reagent was not added. […] Note that compounds undergo only Phase I metabolism in liver microsomes.
(§2) CLint=the intrinsic hepatic clearance (uL/min/mg), where CLint is equal to 0.693/(t1/2×Cmp)

in vitro [2] = conditions: for Observations: stability / GNX production in human plasma / half-life / Observations: stability / GNX production in rat plasma: plasma
Method: The plasma stability of exemplary compounds was tested using rat, mice, dog, and human plasma, according to the following protocol. For each test compound, samples at a final concentration of 2 μg/mL were prepared in blank plasma of selected species. All samples were incubated at 37° C. on a 150-RPM orbital shaker, and an aliquot was removed at pre-determined time points (0, 15, 30, 60, and 120 minutes). Samples were precipitated with three volumes of acetonitrile containing propranolol as internal standard, and centrifuged for 10 min at 2000 g before LC/MS/MS analysis of the supernatant solutions.

[3] = Stability in simulated gastric fluid (SGF); assay type: in vitro ADME
Method: (§3) The stability of exemplary compounds in simulated gastric fluid (SGF) and simulated intestinal fluid (SIF) was tested according to the following protocol.

in vitro [4] = assay type: in vitro ADME, human
Method: as §1

[5] = Stability in simulated intestinal fluid (SIF); assay type: in vitro ADME
Method: as §3

[6] = Measured solubility in buffer, LC-MS/MS; assay type: physicochemical; conditions: aqueous buffer, thermodynamic from solid
Method: […] The mixture was vortexed and a magnetic stirring bar was subsequently added to the vial. The vial was placed on a magnetic stirrer with constant stirring for 16-24 hours at room temperature. The pH of the top layer solution was measured. Subsequently, 200 μL of the top layer solution was placed in a 1.5 mL microcentrifuge tube and centrifuged at 18,000 g for 10 min at room temperature. A 10 μL aliquot of supernatant was added to 990 μL of methanol:water (1/:1, v/v) and vortexed. Then, one volume of acetonitrile containing internal standard was added to one volume of the above 100-fold diluted solution and the resulting solution was vortexed and placed in 96-well plate for LC-MS/MS analysis. […] LC-MS-MS analysis was performed utilizing multiple reaction monitoring for detection of characteristic ions for each test compound, additional related analytes and internal standard.

Dog plasma stability = assay type: in vitro ADME
[7] = Dog liver microsomal stability; assay type: in vitro ADME
Method: as §1, §2
Certain compounds were also tested in mice and dog liver microsome assays according to the protocol outlined above. […].

[8] = rat liver microsomes 0.5 mg/mL, with NADPH, compound 0.5 μM, 37° C., read-out: Rat Liver Microsomal Stability t1/2
[9] = rat liver microsomes 0.5 mg/mL, with NADPH, compound 0.5 μM, read-out: Rat Liver Microsomal Stability CLint (uL/min/mg liver)
[10] = rat liver microsomes, no NADPH, compound 0.5 μM
[11] = SGF with pepsin pH 1.2, 37° C., 60 min
[12] = human liver microsomes 0.5 mg/mL, with NADPH, compound 0.5 μM, 37° C., read-out: Human Liver Microsomal Stability t1/2
[13] = human liver microsomes 0.5 mg/mL, with NADPH, compound 0.5 μM, read-out: Human Liver Microsomal Stability CLint (uL/min/mg liver) (converted)
[14] = human liver microsomes, no NADPH, compound 0.5 μM
[15] = SIF with pancreatin pH 6.8, 37° C., 60 min
[16] = simulated gi fluid, 1 h, pH 1.2
[17] = simulated gi fluid, 1 h, pH 6.8
[18] = simulated gi fluid, SIF with pancreatin pH 6.8, 37° C., 2 μg/mL, read-out: SIF t1/2
[19] = simulated gi fluid, SGF with pepsin pH 1.2, 37° C., 2 μg/mL, read-out: SGF t1/2

Compound | Comments: production of GNX (ganaxolone) in rat liver microsomes ([1]; rat liver microsomes) | half-life [1, 8] | microsomal CLint [1, 9] | Rat Liver Microsomal Stability no NADPH, % remain 1 h [1, 10] | Human plasma t90 (in vitro [2]; human plasma, 2 μg/mL, 37° C.) | Observations: stability / GNX production in human plasma (in vitro [2]; human) | half-life (in vitro [2]; human) | half-life (in vitro [2]; rat) | SGF (% remain, 60 min) [3, 11] | Comments: production of GNX (ganaxolone) in human liver microsomes (in vitro [4]; human liver microsomes) | half-life (in vitro [4]; [12]) | microsomal CLint (in vitro [4]; [13]) | Human Liver Microsomal Stability no NADPH, % remain 1 h (in vitro [4]; [14]) | SIF (% remain, 60 min) [5, 15] | half-life (in vitro [4]; human, microsomes) | half-life [5, 18] | further results
COc1ccccc1N1CCN(CC(=O)O[C@]2(C)CC[C@@]3(C)[C@@H](CC[C@@H]4[C@@H]3CC[C@]3(C)[C@@H](C(C)=O)CC[C@@H]43)C2)CC1 [Compound 100] | GNX not produced in human or rat | 12.7 min | 109 µL/min/mg | 98.0% | 27.8 min | Stable in human, GNX not | 3.07 h | 3.08 h | 90.8% | GNX not produced in human or rat | 11.9 min | 116 µL/min/mg | 100.0% | 93.2% |  |  | Rat plasma t90 (in vitro [2]; rat plasma, 2 μg/mL, 37° C.): 27.9 min
CC(=O)[C@H]1CC[C@H]2[C@@H]3CC[C@H]4C[C@](C)(OC(=O)CN5CCOCC5)CC[C@]4(C)[C@H]3CC[C@]12C [Compound 101] | GNX not produced in human or rat |  |  |  |  | Stable in human | 26.9 h | 37.8 h |  | GNX not produced in human or rat |  |  |  |  | 10.2 min |  | half-life ([1]; rat, microsomes): 6.8 min; microsomal CLint ([1]; rat, microsomes): 204 µL/min/mg; Rat Liver Microsomal Stability no NADPH, % remain 1 h ([1]; rat, microsomes): 100.0%; Human plasma t90 (in vitro [2]; human): 243.0 min; Rat plasma t90 (in vitro [2]; rat): 342.0 min; SGF (% remain, 60 min) [3, 16]: 90.5%; microsomal CLint (in vitro [4]; human, microsomes): 137 µL/min/mg; Human Liver Microsomal Stability no NADPH, % remain 1 h (in vitro [4]; human, microsomes): 99.0%; SIF (% remain, 60 min) [5, 17]: 90.2%
CC(=O)[C@H]1CC[C@H]2[C@@H]3CC[C@H]4C[C@](C)(OC(=O)CN5CCN(C)CC5)CC[C@]4(C)[C@H]3CC[C@]12C [Compound 102] |  |  |  |  |  |  |  |  | 56.3% |  |  |  |  | 74.7% |  |  | 
CCOC(=O)CNCC(=O)O[C@]1(C)CC[C@@]2(C)[C@@H](CC[C@@H]3[C@@H]2CC[C@]2(C)[C@@H](C(C)=O)CC[C@@H]32)C1 [Compound 103] |  |  |  |  |  |  |  |  | 98.4% |  |  |  |  | 75.9% |  |  | 
COC(=O)[C@@H](C)NCC(=O)O[C@]1(C)CC[C@@]2(C)[C@@H](CC[C@@H]3[C@@H]2CC[C@]2(C)[C@@H](C(C)=O)CC[C@@H]32)C1 [Compound 106] |  |  |  |  |  |  |  |  |  | GNX not produced in human |  |  |  |  | 4.57 min |  | SGF (% remain, 60 min) [3, 16]: 2.80%; microsomal CLint (in vitro [4]; human, microsomes): 303 µL/min/mg; Human Liver Microsomal Stability no NADPH, % remain 1 h (in vitro [4]; human, microsomes): 3.05%
CC(=O)[C@H]1CC[C@H]2[C@@H]3CC[C@H]4C[C@](C)(OC(=O)CNCCO)CC[C@]4(C)[C@H]3CC[C@]12C [Compound 107] | GNX not produced in human or rat | 21.9 min | 63 µL/min/mg | 98% |  |  |  |  |  | GNX not produced in human or rat |  | 21.4 µL/min/mg | 99% |  | 64.7 min |  | 
CC(=O)[C@H]1CC[C@H]2[C@@H]3CC[C@H]4C[C@](C)(OC(=O)CNCC(=O)OC(C)(C)C)CC[C@]4(C)[C@H]3CC[C@]12C [Compound 109] |  |  |  |  |  |  |  |  | 96.2% |  |  |  |  | 92.9% |  |  | 
CC(=O)[C@H]1CC[C@H]2[C@@H]3CC[C@H]4C[C@](C)(OC(=O)CO)CC[C@]4(C)[C@H]3CC[C@]12C [Compound 201] |  | 32.4 min | 42.7 µL/min/mg | 99.5% | 313 min | compound very slowly | 34.6 h | 9.05 h |  | In human, GNX produced | 17.4 min | 79.5 µL/min/mg | 70% | 98.0% |  | 1580 min | solubility ([6]; pH 7.4, 50 mM phosphate buffer, 16-24 hours, room temperature, read-out: Solubility pH 7.4): 33 µg/mL (≈ 84.5 µM); solubility ([6]; buffer, pH 2.0, room temperature, read-out: Solubility pH 2.0): 36 µg/mL (≈ 92.2 µM); Rat plasma t90 (in vitro [2]; rat plasma, 2 μg/mL, 37° C.): 82 min; Observations: stability / GNX production in rat plasma (in vitro [2]; rat): compound very slowly
CC(=O)[C@H]1CC[C@H]2[C@@H]3CC[C@H]4C[C@](C)(OC(=O)COC(=O)C(C)(C)OC(=O)CN(CCO)CCO)CC[C@]4(C)[C@H]3CC[C@]12C [Compound 228] | In rat no GNX produced; | 16.4 min | 84.4 µL/min/mg | 15% | 1.4 min | No GNX produced | 0.15 h | 0.2 h | 89% | In human GNX produced. | 6.2 min | 225 µL/min/mg | 6% | 1.7% |  | 32 min | Observations: stability / GNX production in dog plasma (Dog plasma stability; dog plasma): No GNX produced; Dog plasma t90 (Dog plasma stability; dog plasma, 2 μg/mL, 37° C.): 3 min; half-life (Dog plasma stability; dog plasma, 2 μg/mL, 37° C., read-out: Dog plasma Half life (t1/2)): 0.333 h; microsomal CLint ([7]; dog liver microsomes 0.5 mg/mL, compound 0.5 μM, read-out: Dog Liver Microsomal Stability CLint (uL/min/mg liver)): 129 µL/min/mg; half-life ([7]; dog liver microsomes 0.5 mg/mL, compound 0.5 μM, read-out: Dog Liver Microsomal Stability t1/2): 10.7 min; Dog Liver Microsomal Stability no NADPH, % remain 1 h ([7]; dog liver microsomes, no NADPH): 12.9%; Rat plasma t90 (in vitro [2]; rat plasma, 2 μg/mL, 37° C.): 1.8 min; Observations: stability / GNX production in rat plasma (in vitro [2]; rat): GNX produced in rat; half-life [3, 19]: 8.52 h
CC(=O)OCCN(C)CC(=O)OC(C)(C)C(=O)OCC(=O)O[C@]1(C)CC[C@@]2(C)[C@@H](CC[C@@H]3[C@@H]2CC[C@]2(C)[C@@H](C(C)=O)CC[C@@H]32)C1 [Compound 242] |  |  |  |  |  | No GNX produced | 0.55 h |  |  |  |  |  |  |  | 1.41 min |  | Dog plasma t90 (Dog plasma stability; dog): 578 min; Observations: stability / GNX production in dog plasma (Dog plasma stability; dog plasma): No GNX produced; half-life (Dog plasma stability; dog plasma): 64 h; half-life ([7]; dog, microsomes): 2.07 min; microsomal CLint ([7]; dog, microsomes): 668 µL/min/mg; Dog Liver Microsomal Stability no NADPH, % remain 1 h ([7]; dog, microsomes): 0.89%; Human plasma t90 (in vitro [2]; human): 4.99 min; SGF (% remain, 60 min) [3, 16]: 99.1%; half-life ([3]; simulated gi fluid, pH 1.2): 76.6 h; microsomal CLint (in vitro [4]; human, microsomes): 982 µL/min/mg; Human Liver Microsomal Stability no NADPH, % remain 1 h (in vitro [4]; human, microsomes): 0.26%; SIF (% remain, 60 min) [5, 17]: 29%; half-life ([5]; simulated gi fluid, pH 6.8): 146 min
COCCOCCOCC(=O)OCO[C@]1(C)CC[C@@]2(C)[C@@H](CC[C@@H]3[C@@H]2CC[C@]2(C)[C@@H](C(C)=O)CC[C@@H]32)C1 [Compound 503] |  |  |  |  |  |  | < 0.5 h |  | 68% |  | 5.65 min | 245 µL/min/mg | 11.6% | ~90% |  | ~30 min | half-life [3, 19]: 1.97 h
CC(=O)[C@H]1CC[C@H]2[C@@H]3CC[C@H]4C[C@](C)(OCOC(=O)CN5CCOCC5)CC[C@]4(C)[C@H]3CC[C@]12C [Compound 504] |  |  |  |  | 2.54 min |  | 0.285 h |  | 0.4% |  | 2.5 min | 554 µL/min/mg | 0.8% | 49.0% |  | 88.4 min | half-life [3, 19]: 0.123 h
